Experimental findings from PubChem BioAssay AID330 (DTP/NCI, 2004) are described below.

This experiment relates to P388 leukemia ip, CD2F1 mice, survival T/C. As to the kind of experiment: NCI In Vivo Anticancer Drug Screen. Data for tumor model P388 Leukemia (intraperitoneal) in CD2F1 (CDF1) mice. The note with it: endpoint: median survival time, higher = longer survival. In short, it runs like this:
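Mice carrying the transplanted tumor received test compound or vehicle. Survival was recorded in each group, and the value is the treated-group measurement divided by that of the vehicle-treated control group.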

Setting [1] is: dose: 100.0 mg/kg/injection, schedule: Q01DX001 (ip), vehicle: saline.
Where [2] appears, read: dose: 200.0 mg/kg/injection, schedule: Q01DX001 (ip), vehicle: saline.
Where [3] appears, read: dose: 100.0 mg/kg/injection, schedule: Q04DX002 (ip), vehicle: saline with Tween-80.
Setting [4] is: dose: 200.0 mg/kg/injection, schedule: Q04DX002 (ip), vehicle: saline with Tween-80.
Setting [5] is: dose: 100.0 mg/kg/injection, schedule: Q01DX009 (ip), vehicle: saline.
Where [6] appears, read: dose: 200.0 mg/kg/injection, schedule: Q01DX009 (ip), vehicle: saline.

Several values for one entry are separate records, joined by “and”; a condition that tells them apart may be missing. Equal values may be shown once. Toxic doses and inconclusive results are not listed.

For `c1nnc(NC(Nc2nncs2)C2CCCCC2)s1`, the T/C was 98 % of control (dose: 30.0 mg/kg/injection, schedule: Q01DX005 (ip), vehicle: saline with Tween-80); 95 % of control (dose: 60.0 mg/kg/injection, schedule: Q01DX005 (ip), vehicle: saline with Tween-80); 90 % of control and 92 % of control (dose: 120.0 mg/kg/injection, schedule: Q01DX005 (ip), vehicle: saline with Tween-80); 121 % of control (dose: 240.0 mg/kg/injection, schedule: Q01DX005 (ip), vehicle: saline with Tween-80).

In the case of `COc1cc(O)c2c(-c3cc(O)ccc3O)cc(=O)oc2c1`, the T/C (dose: 60.0 mg/kg/injection, schedule: Q01DX005 (ip), vehicle: Klucel (hydroxypropylcellulose) (HPC)) is 94 % of control; the T/C (dose: 120.0 mg/kg/injection, schedule: Q01DX005 (ip), vehicle: Klucel (hydroxypropylcellulose) (HPC)) is 88 % of control; the T/C (dose: 240.0 mg/kg/injection, schedule: Q01DX005 (ip), vehicle: Klucel (hydroxypropylcellulose) (HPC)) was 96 % of control.

As to `C[C@]12CC[C@@H]3c4ccc(O)cc4CC[C@H]3[C@@H]1CC[C@@H]2NCCCCCCO`, the T/C was 92 % of control (dose: 50.0 mg/kg/injection, schedule: Q01DX005 (ip), vehicle: Klucel (hydroxypropylcellulose) (HPC)) and 97 % of control (dose: 100.0 mg/kg/injection, schedule: Q01DX005 (ip), vehicle: Klucel (hydroxypropylcellulose) (HPC)).

Regarding `CC(=O)O[C@@H]1C(=O)C=C(C)[C@@H]2[C@@H](OC(=O)C=C(C)C)[C@H]3OC(=O)C[C@H]4[C@@H](C)[C@@H](O)[C@]5(O)OC[C@]34[C@H]5[C@@]12C`, the T/C (dose: 0.5 mg/kg/injection, schedule: Q01DX009 (ip), vehicle: distilled water + Tween-80) is 118 % of control; the T/C (dose: 1.0 mg/kg/injection, schedule: Q01DX009 (ip), vehicle: distilled water + Tween-80) was 121 % of control; the T/C (dose: 10.0 mg/kg/injection, schedule: Q01DX009 (ip), vehicle: distilled water + Tween-80) is 177 % of control.

As for `COc1ccc2ccc(/C=C/[N+](=O)[O-])cc2c1OC`, the T/C reads like this: (dose: 3.13 mg/kg/injection, schedule: Q01DX009 (ip), vehicle: other) 109 % of control; (dose: 6.25 mg/kg/injection, schedule: Q01DX009 (ip), vehicle: other) 108 % of control; (dose: 12.5 mg/kg/injection, schedule: Q01DX009 (ip), vehicle: other) 110 % of control; (dose: 25.0 mg/kg/injection, schedule: Q01DX009 (ip), vehicle: other) 106 % of control.

With `S=P(NCCS)(N1CC1)N1CC1`, the T/C reads like this: (dose: 100.0 mg/kg/injection, schedule: Q04DX003 (ip), vehicle: saline with Tween-80) 109 % of control; (dose: 200.0 mg/kg/injection, schedule: Q04DX003 (ip), vehicle: saline with Tween-80) 122 % of control; (dose: 400.0 mg/kg/injection, schedule: Q04DX003 (ip), vehicle: saline with Tween-80) 91 % of control.

Turning to `Cc1nccc2cccc(CNC(C)C)c12`, the T/C reads like this: under setting [1], 103 % of control; under setting [2], 100 % of control.

Regarding `CCCCN(S(=O)(=O)c1ccc(C)cc1)S(=O)(=O)c1ccc(C)cc1`, the T/C by setting is: (dose: 100.0 mg/kg/injection, schedule: Q01DX009 (ip), vehicle: saline with Tween-80) 120 % of control; (dose: 200.0 mg/kg/injection, schedule: Q01DX009 (ip), vehicle: saline with Tween-80) 106 % of control; (dose: 400.0 mg/kg/injection, schedule: Q01DX009 (ip), vehicle: saline with Tween-80) 87 % of control.

Regarding `CCCC[P+](c1ccccc1)(c1ccccc1)c1ccccc1`, the T/C is 118 % of control (dose: 5.0 mg/kg/injection, schedule: Q01DX009 (ip), vehicle: saline sonified); 122 % of control (dose: 10.0 mg/kg/injection, schedule: Q01DX009 (ip), vehicle: saline sonified); 118 % of control (dose: 13.2 mg/kg/injection, schedule: Q01DX009 (ip), vehicle: saline sonified); 118 % of control (dose: 20.0 mg/kg/injection, schedule: Q01DX009 (ip), vehicle: saline sonified); 90 % of control (dose: 30.0 mg/kg/injection, schedule: Q01DX009 (ip), vehicle: saline sonified).

Regarding `CC(C)C1=CC23CCC4C(C)(C(=O)O)CCCC4(C)C2CC1C(C(=O)O)C3C(=O)O` (configuration not stated), the T/C (dose: 50.0 mg/kg/injection, schedule: Q01DX005 (ip), vehicle: saline) was 97 % of control; the T/C (dose: 100.0 mg/kg/injection, schedule: Q01DX005 (ip), vehicle: saline) is 96 % of control; the T/C (dose: 200.0 mg/kg/injection, schedule: Q01DX005 (ip), vehicle: saline) is 98 % of control.

On to `C/C=C1/CN2CCc3c4n(c5ccccc35)[C@H](C(=O)OC)[C@H]1C[C@@H]42`, for which the T/C reads like this: (dose: 12.5 mg/kg/injection, schedule: Q01DX005 (ip), vehicle: acid diluted with saline) 107 % of control; (dose: 25.0 mg/kg/injection, schedule: Q01DX005 (ip), vehicle: acid diluted with saline) 94 % of control; (dose: 50.0 mg/kg/injection, schedule: Q01DX005 (ip), vehicle: acid diluted with saline) 98 % of control; (dose: 100.0 mg/kg/injection, schedule: Q01DX005 (ip), vehicle: acid diluted with saline) 100 % of control.

On to `COC(=O)c1ccnc(C(=O)OC)c1`, for which the T/C was 86 % of control (dose: 50.0 mg/kg/injection, schedule: Q01DX001 (ip), vehicle: saline); 95 % of control under setting [1]; 100 % of control under setting [2].

`FC(F)(F)COc1ccc(-c2nnc(-c3ccc(OCC(F)(F)F)cc3)o2)cc1`: the T/C reads like this: under setting [3], 90 % of control; under setting [4], 87 % of control; (dose: 400.0 mg/kg/injection, schedule: Q04DX002 (ip), vehicle: saline with Tween-80) 86 % of control.

As for `O=C(NC(C(=O)O)C1CC(Cl)=NO1)OCC1c2ccccc2-c2ccccc21` (configuration not stated), the T/C (dose: 3.1 mg/kg/injection, schedule: Q04DX003 (ip), vehicle: other) is 104 % of control; the T/C (dose: 6.2 mg/kg/injection, schedule: Q04DX003 (ip), vehicle: other) is 116 % of control; the T/C (dose: 12.5 mg/kg/injection, schedule: Q04DX003 (ip), vehicle: other) is 120 % of control; the T/C (dose: 25.0 mg/kg/injection, schedule: Q04DX003 (ip), vehicle: other) was 120 % of control and 123 % of control; the T/C (dose: 100.0 mg/kg/injection, schedule: Q04DX003 (ip), vehicle: other) was 157 % of control; the T/C (dose: 200.0 mg/kg/injection, schedule: Q04DX003 (ip), vehicle: other) was 150 % of control.

For `CN(C)Cc1cc2c(=O)[nH]c(N)nc2[nH]1`, the T/C was 101 % of control (dose: 100.0 mg/kg/injection, schedule: Q01DX001 (ip), vehicle: Klucel (hydroxypropylcellulose) (HPC)) and 104 % of control (dose: 200.0 mg/kg/injection, schedule: Q01DX001 (ip), vehicle: Klucel (hydroxypropylcellulose) (HPC)).

On to `[O-][n+]1cccc(O)c1`, for which the T/C was 100 % of control and 102 % of control (dose: 25.0 mg/kg/injection, schedule: Q01DX009 (ip), vehicle: saline); 102 % of control and 108 % of control (dose: 50.0 mg/kg/injection, schedule: Q01DX009 (ip), vehicle: saline); 102 % of control and 92 % of control under setting [5]; 100 % of control and 108 % of control under setting [6]; 103 % of control and 97 % of control (dose: 400.0 mg/kg/injection, schedule: Q01DX009 (ip), vehicle: saline); 108 % of control and 117 % of control (dose: 600.0 mg/kg/injection, schedule: Q01DX009 (ip), vehicle: saline).

With `CC(=O)[C@H]1[C@H](O)C[C@H]2[C@@H]3CCC4=CC(=O)CC[C@]4(C)[C@@]3(F)[C@@H](O)C[C@@]21C`, the T/C reads like this: under setting [5], 120 % of control; under setting [6], 95 % of control.

Take `O=C1CC(O)(c2ccccc2)CCS1` (configuration not stated): the T/C was 99 % of control (dose: 100.0 mg/kg/injection, schedule: Q04DX003 (ip), vehicle: Klucel (hydroxypropylcellulose) (HPC)); 107 % of control (dose: 200.0 mg/kg/injection, schedule: Q04DX003 (ip), vehicle: Klucel (hydroxypropylcellulose) (HPC)); 106 % of control (dose: 400.0 mg/kg/injection, schedule: Q04DX003 (ip), vehicle: Klucel (hydroxypropylcellulose) (HPC)).

As to `CC(=O)CC(C)=NCCN=C(C)CC(C)=O.C[CH2][Sn][CH2]C`, the T/C runs as follows: (dose: 12.5 mg/kg/injection, schedule: Q04DX003 (ip), vehicle: saline) 106 % of control; (dose: 25.0 mg/kg/injection, schedule: Q04DX003 (ip), vehicle: saline) 105 % of control; (dose: 50.0 mg/kg/injection, schedule: Q04DX003 (ip), vehicle: saline) 120 % of control; (dose: 100.0 mg/kg/injection, schedule: Q04DX003 (ip), vehicle: saline) 150 % of control.

On to `O=C(O)CS(=O)NN(c1ccccc1)c1ccccc1` (configuration not stated), for which the T/C is 102 % of control under setting [3] and 102 % of control under setting [4].
